Laboratory results from patent US9603889B2, “IAP antagonists” (BRISTOL-MYERS SQUIBB COMPANY, priority 2012, dated 2017).

These compounds were tested against XIAP BIR3 (N-His-Tb-BIR3(241-356, XIAP)) (Homo sapiens (Human), UniProt P98170). Conditions: 130 nM N-His-Tb-BIR3(241-356, XIAP), 1.4 nM fluoresceinated modified SMAC peptide, 60 minutes room temperature; read-out: XIAP BIR3 FPA IC50.
Type: binding

XIAP BIR3 (N-His-Tb-BIR3(241-356, XIAP)), sequence (P98170 241-356): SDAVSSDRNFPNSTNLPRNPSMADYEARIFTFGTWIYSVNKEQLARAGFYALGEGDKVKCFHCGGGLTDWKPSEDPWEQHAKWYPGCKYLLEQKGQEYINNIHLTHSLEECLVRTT

SMILES	IC50 [nM]
CN[C@@H](C)C(=O)N[C@H](C(=O)N1C[C@@H](NC(=O)c2ccc(CN(Cc3ccc4ccccc4c3)C(=O)[C@@H]3Cc4ccccc4CN3C(=O)[C@@H](NC(=O)[C@H](C)NC)C(C)(C)C)cc2)C[C@H]1C(=O)N[C@@H]1CCCc2ccccc21)C(C)(C)C [Example 14, (S)-2-((S)-3,3-Dimethyl-2-((S)-2-(methyl-amino)propanamido)butanoyl)-N-(4-(((3S,5S)-1-((S)-3,3-dimethyl-2-((S)-2-(methylamino)propanamido)butanoyl)-5-(((R)-1,2,3,4-tetra-hydronaphthalen-1-yl)carbamoyl)pyrrolidin-3-yl)carbamoyl)benzyl)-N-(naphthalen-2-ylmethyl)-1,2,3,4-tetrahydro-isoquinoline-3-carboxamide]	40
CN[C@@H](C)C(=O)N[C@H](C(=O)N1C[C@@H](NC(=O)c2ccc(CN(C(=O)[C@@H]3Cc4ccccc4CN3C(=O)[C@@H](NC(=O)[C@H](C)NC)C(C)(C)C)[C@H](C)c3ccc4ccccc4c3)cc2)C[C@H]1C(=O)N[C@@H]1CCCc2ccccc21)C(C)(C)C [Example 15, (S)-2-((S)-3,3-Dimethyl-2-((S)-2-(methylamino)propanamido)butanoyl)-N-(4-(((3S,5S)-1-((S)-3,3-dimethyl-2-((S)-2-(methylamino)propanamido)butanoyl)-5-(((R)-1,2,3,4-tetra-hydronaphthalen-1-yl)carbamoyl)pyrrolidin-3-yl)carbamoyl)benzyl)-N-((R)-1-(naphthalen-2-yl)ethyl)-1,2,3,4-tetrahydro-isoquinoline-3-carboxamide]	90
CN[C@@H](C)C(=O)N[C@H](C(=O)N1CCc2ccccc2[C@H]1C(=O)N(CCc1ccccc1)Cc1ccc(C(=O)NC2C[C@@H](C(=O)NC3CCCc4ccccc43)N(C(=O)[C@@H](NC(=O)[C@H](C)NC)C(C)(C)C)C2)cc1)C(C)(C)C (stereo partly shown) [Example 16]	70
CN[C@@H](C)C(=O)N[C@H](C(=O)N1C[C@@H](NC(=O)c2ccc(CN(C(=O)[C@@H]3Cc4ccccc4CN3C(=O)[C@@H](NC(=O)[C@H](C)NC)C(C)(C)C)[C@@H](C)c3cccc(Cl)c3)cc2)C[C@H]1C(=O)N[C@@H]1CCCc2ccccc21)C(C)(C)C [Example 18, (S)-N-((S)-1-(3-Chlorophenyl)ethyl)-2-((S)-3,3-dimethyl-2-((S)-2-(methylamino)propanamido)butanoyl)-N-(4-(((3S,5S)-1-((S)-3,3-dimethyl-2-((S)-2-(methylamino)propanamido)butanoyl)-5-(((R)-1,2,3,4-tetrahydro-naphthalen-1-yl)carbamoyl)pyrrolidin-3-yl)carbamoyl)benzyl)-1,2,3,4-tetrahydro-isoquinoline-3-carboxamide]	120
CN[C@@H](C)C(=O)N[C@H](C(=O)N1CCc2ccccc2[C@H]1C(=O)N(Cc1ccc(C(=O)N[C@H]2C[C@@H](C(=O)N[C@@H]3CCCc4ccccc43)N(C(=O)[C@@H](NC(=O)[C@H](C)NC)C(C)(C)C)C2)cc1)[C@H](C)c1ccccc1F)C(C)(C)C [Example 19, (S)-2-((S)-3,3-Dimethyl-2-((S)-2-(methylamino)propanamido)butanoyl)-N-(4-(((3S,5S)-1-((S)-3,3-dimethyl-2-((S)-2-(methylamino)propanamido)butanoyl)-5-(((R)-1,2,3,4-tetra-hydronaphthalen-1-yl)carbamoyl)pyrrolidin-3-yl)carbamoyl)benzyl)-N-((R)-1-(2-fluorophenyl)ethyl)-1,2,3,4-tetrahydro-isoquinoline-1-carboxamide]	290
CC[C@H](c1ccccc1)N(Cc1ccc(C(=O)N[C@H]2C[C@@H](C(=O)N[C@@H]3CCCc4ccccc43)N(C(=O)[C@@H](NC(=O)[C@H](C)NC)C(C)(C)C)C2)cc1)C(=O)[C@@H]1Cc2ccccc2CN1C(=O)[C@@H](NC(=O)[C@H](C)NC)C(C)(C)C [Example 20, (S)-2-((S)-3,3-Dimethyl-2-((S)-2-(methylamino)propanamido)butanoyl)-N-(4-(((3S,5S)-1-((S)-3,3-dimethyl-2-((S)-2-(methylamino)propanamido)butanoyl)-5-(((R)-1,2,3,4-tetrahydro-naphthalen-1-yl)carbamoyl)pyrrolidin-3-yl)carbamoyl)benzyl)-N-((R)-1-phenylpropyl)-1,2,3,4-tetra-hydroisoquinoline-3-carboxamide]	110
CN[C@@H](C)C(=O)N[C@H](C(=O)N1C[C@@H](NC(=O)c2ccc(CN(C(=O)[C@@H]3Cc4ccccc4CN3C(=O)[C@@H](NC(=O)[C@H](C)NC)C(C)(C)C)[C@H](C)C(c3ccccc3)c3ccccc3)cc2)C[C@H]1C(=O)N[C@@H]1CCCc2ccccc21)C(C)(C)C [Example 21, (S)-2-((S)-3,3-Dimethyl-2-((S)-2-(methylamino)propanamido)butanoyl)-N-(4-(((3S,5S)-1-((S)-3,3-dimethyl-2-((S)-2-(methylamino)propanamido)butanoyl)-5-(((R)-1,2,3,4-tetra-hydronaphthalen-1-yl)carbamoyl)pyrrolidin-3-yl)carbamoyl)benzyl)-N-((R)-1,1-diphenylpropan-2-yl)-1,2,3,4-tetrahydro-isoquinoline-3-carboxamide]	290
CN[C@@H](C)C(=O)N[C@H](C(=O)N1C[C@@H](NC(=O)c2ccc(CN(C(=O)[C@@H]3Cc4ccccc4CN3C(=O)[C@@H](NC(=O)[C@H](C)NC)C(C)(C)C)[C@H](C)c3ccccc3)cc2)C[C@H]1C(=O)N[C@@H]1CCCc2ccccc21)C(C)(C)C [Example 23, (S)-2-((S)-3,3-Dimethyl-2-((S)-2-(methylamino)propanamido)butanoyl)-N-(4-(((3S,5S)-1-((S)-3,3-dimethyl-2-((S)-2-(methylamino)propanamido)butanoyl)-5-(((R)-1,2,3,4-tetra-hydronaphthalen-1-yl)carbamoyl)pyrrolidin-3-yl)carbamoyl)benzyl)-N-((R)-1-phenylethyl)-1,2,3,4-tetra-hydroisoquinoline-3-carboxamide]	120
CN[C@@H](C)C(=O)N[C@H](C(=O)N1C[C@@H](NC(=O)c2ccc(CN(C(=O)[C@@H]3Cc4ccccc4CN3C(=O)[C@@H](NC(=O)[C@H](C)NC)C(C)(C)C)[C@H](C)c3ccccc3OC)cc2)C[C@H]1C(=O)N[C@@H]1CCCc2ccccc21)C(C)(C)C [Example 24, (S)-2-((S)-3,3-Dimethyl-2-((S)-2-(methylamino)propanamido)butanoyl)-N-(4-(((3S,5S)-1-((S)-3,3-dimethyl-2-((S)-2-(methylamino)propanamido)butanoyl)-5-(((R)-1,2,3,4-tetrahydro-naphthalen-1-yl)carbamoyl)pyrrolidin-3-yl)carbamoyl)benzyl)-N-((R)-1-(2-methoxyphenyl)ethyl)-1,2,3,4-tetrahydro-isoquinoline-3-carboxamide]	130
CN[C@@H](C)C(=O)N[C@H](C(=O)N1C[C@@H](NC(=O)c2ccc(CN(C(=O)[C@@H]3Cc4ccccc4CN3C(=O)[C@@H](NC(=O)[C@H](C)NC)C(C)(C)C)[C@H](C)Cc3ccccc3F)cc2)C[C@H]1C(=O)N[C@@H]1CCCc2ccccc21)C(C)(C)C [Example 25, (S)-2-((S)-3,3-Dimethyl-2-((S)-2-(methylamino)propanamido)butanoyl)-N-(4-(((3S,5S)-1-((S)-3,3-dimethyl-2-((S)-2-(methylamino)propanamido)butanoyl)-5-(((R)-1,2,3,4-tetrahydro-naphthalen-1-yl)carbamoyl)pyrrolidin-3-yl)carbamoyl)benzyl)-N-((R)-1-(2-fluorophenyl)propan-2-yl)-1,2,3,4-tetrahydro-isoquinoline-3-carboxamide]	60
